By IC50 is commonly meant the concentration at which inhibition is half-maximal.

The structures appear in SMILES notation. Some results are limits rather than exact numbers.

Assay [1] concerns WT-LRRK2 or G2019S-LRRK2. Put plainly: Inhibition of LRRK2 phosphorylation (pS935 antibody) in lysates of transfected HEK-293T cells. In kind it is cell-based. To be noted: HEK-293T cells transiently transfected with either WT-LRRK2 or G2019S-LRRK2. The source says:
To test whether Example 90 and Example 34 can inhibit LRRK2 phosphorylation, an antibody commercially available from Epitomics directed against the serine residue number 935 on LRRK2 from lysates generated from HEK-293T cells transiently transfected with either WT-LRRK2 or G2019S-LRRK2 protein.

Assay [2] deals with T1, LRRK2 (G2019S) (Homo sapiens, UniProt Q5S007, G2019S).
T1 construct: Recombinant GST-LRRK2 (delta970), purified from baculovirus infected insect cells (SF9); GST (N); host or cells: baculovirus infected insect cells (SF9)
Put plainly: LRRK2 inhibition, radiometric kinase assay with recombinant GST-LRRK2 (delta970) and peptide substrate. In kind it is biochemical. The following applies: GST-LRRK2 (delta970) G2019S 30 nM, ATP ~52 μM (Km), 30 min at 30° C. The procedure, abridged:
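Recombinant GST-LRRK2 (delta970) from SF9 cells, wild-type or G2019S, at 30 nM in 50 mM Tris HCl pH 7.4, 1 mM EDTA with 50 μM peptide substrate and 0.1% DMSO. ATP at Km (˜92 μM WT, ˜52 μM G2019S) with 10 mM MgCl2 and gamma-32-P label; 30 min at 30° C. Phosphocellulose capture, scintillation counting.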

The subject of assay [3] is G2019S-LRRK2. Put plainly: LPS-induced TNF-alpha in primary macrophages over-expressing G2019S-LRRK2. In kind it is cell-based, mice. To be noted: 5 μM 1 hour prior to LPS stimulation (100 ng/ml), TNF-alpha measured 6 hours later. The source says: Recently, high levels of LRRK2 expression in primary microglia that are the immune cells of the nervous system have been discovered (Moehle et al., J. Neuroscience (2012), PMID 22302802). […] More recently, LRRK2 has also been detected in primary macrophages, specifically macrophages isolated after thioglycolate exposures in mice. To assess whether Example 90 can inhibit the G2019S-LRRK2 induced increase in TNF-alpha to wild-type levels of TNF-alpha induction by LPS, primary macrophages were exposed in culture to 5 μM 1 hour prior to LPS stimulation (100 ng/ml), and TNF-alpha levels were measured 6 hours later.

T1 sequence (Q5S007 970-2527 G2019S limits assumed): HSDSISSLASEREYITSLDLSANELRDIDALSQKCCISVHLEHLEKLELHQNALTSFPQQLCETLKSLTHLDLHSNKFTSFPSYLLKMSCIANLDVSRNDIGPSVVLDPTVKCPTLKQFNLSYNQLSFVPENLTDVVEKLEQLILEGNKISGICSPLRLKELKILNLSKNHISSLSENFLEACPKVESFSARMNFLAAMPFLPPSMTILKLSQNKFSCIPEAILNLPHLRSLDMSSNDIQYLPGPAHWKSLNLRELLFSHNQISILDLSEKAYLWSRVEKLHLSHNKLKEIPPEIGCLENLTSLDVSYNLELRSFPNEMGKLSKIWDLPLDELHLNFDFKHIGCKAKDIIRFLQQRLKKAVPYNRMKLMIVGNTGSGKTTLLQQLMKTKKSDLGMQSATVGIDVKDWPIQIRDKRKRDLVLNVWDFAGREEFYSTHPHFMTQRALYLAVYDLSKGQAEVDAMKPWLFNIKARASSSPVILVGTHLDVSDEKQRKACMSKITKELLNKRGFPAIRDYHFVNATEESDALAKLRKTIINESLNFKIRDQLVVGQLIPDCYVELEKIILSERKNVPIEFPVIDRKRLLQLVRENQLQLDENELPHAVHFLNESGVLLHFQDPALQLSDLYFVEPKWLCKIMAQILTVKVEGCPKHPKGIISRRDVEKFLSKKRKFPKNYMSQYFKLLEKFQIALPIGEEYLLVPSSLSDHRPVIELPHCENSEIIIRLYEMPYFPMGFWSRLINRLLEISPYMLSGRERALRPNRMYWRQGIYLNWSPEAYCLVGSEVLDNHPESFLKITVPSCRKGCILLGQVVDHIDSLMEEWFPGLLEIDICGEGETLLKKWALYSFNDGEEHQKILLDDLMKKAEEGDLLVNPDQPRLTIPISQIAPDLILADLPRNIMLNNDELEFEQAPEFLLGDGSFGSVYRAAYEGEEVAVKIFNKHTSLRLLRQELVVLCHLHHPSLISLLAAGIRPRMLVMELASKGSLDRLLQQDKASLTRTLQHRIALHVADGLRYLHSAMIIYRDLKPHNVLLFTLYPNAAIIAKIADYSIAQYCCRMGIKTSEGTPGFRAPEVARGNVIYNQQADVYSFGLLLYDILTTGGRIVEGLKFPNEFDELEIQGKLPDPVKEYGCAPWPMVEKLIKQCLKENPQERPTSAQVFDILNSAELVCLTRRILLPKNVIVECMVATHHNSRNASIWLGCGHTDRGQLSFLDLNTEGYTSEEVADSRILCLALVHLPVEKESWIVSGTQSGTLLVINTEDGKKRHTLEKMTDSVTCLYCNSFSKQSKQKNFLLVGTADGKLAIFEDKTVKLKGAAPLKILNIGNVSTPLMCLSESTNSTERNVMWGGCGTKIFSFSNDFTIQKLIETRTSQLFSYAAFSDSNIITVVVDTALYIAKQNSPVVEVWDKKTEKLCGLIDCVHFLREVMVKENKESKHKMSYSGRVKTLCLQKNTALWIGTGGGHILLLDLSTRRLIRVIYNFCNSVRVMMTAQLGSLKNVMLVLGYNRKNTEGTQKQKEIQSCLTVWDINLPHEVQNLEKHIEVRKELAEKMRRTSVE

Consider `CCC(Sc1ccc2nnc(-c3cccs3)n2n1)C(=O)N1CCCCC1` (centres unmarked) [Example 34, 1-(piperidin-1-yl)-2-((3-(thiophen-2-yl)-[1,2,4]triazolo[4,3-b]pyridazin-6-yl)thio)butan-1-one], for which the “levels of pS935 on LRRK2” value in assay [1] was “partially inhibited”. Also, the IC50 in assay [2] is < 100 nM.

Take `CC(Sc1ccc2nnc(-c3cccs3)n2n1)C(=O)N1CCCCC1` (centres unmarked) [Example 90, 1-(piperidin-1-yl)-2-((3-(thiophen-2-yl)-[1,2,4]triazolo[4,3-b]pyridazin-6-yl)thio)propan-1-one]: in assay [3], the “TNF-alpha levels (G2019S-LRRK2 induced increase)” value was “successfully returned G2019S-LRRK2 over-expressing cells back to WT levels”. The “levels of pS935 on LRRK2” value in assay [1] is “partially inhibited”. For the same molecule, the IC50 in assay [2] was < 100 nM.

`CC(Sc1ccc2nnc(-c3nccs3)n2n1)C(=O)O` (centres unmarked) [Example 124, 2-((3-(thiazol-2-yl)-[1,2,4]triazolo[4,3-b]pyridazin-6-yl)thio)propanoic acid]: the IC50 in assay [2] fell in the range of 100 to 1000 nM.

In the case of `CC(Sc1ccc2nnc(-c3nccs3)n2n1)C(=O)N1CCCCC1` (centres unmarked) [Example 125, 1-(piperidin-1-yl)-2-((3-(thiazol-2-yl)-[1,2,4]triazolo[4,3-b]pyridazin-6-yl)thio)propan-1-one], the IC50 in assay [2] was in the range of 100 to 1000 nM.

`CC(Sc1ccc2nnc(-c3nccs3)n2n1)C(=O)N1CCC1` (centres unmarked) [Example 126, 1-(azetidin-1-yl)-2-((3-(thiazol-2-yl)-[1,2,4]triazolo[4,3-b]pyridazin-6-yl)thio)propan-1-one]: in assay [2], the IC50 lay within 100 to 1000 nM.

These data come from US9187484B2 (Southern Research Institute, priority 2012, dated 2015).
